Article PMC5108032, “Discovery of a Quinoline-4-carboxamide Derivative with a Novel Mechanism of Action, Multistage Antimalarial Activity, and Potent in Vivo Efficacy” (Journal of Medicinal Chemistry, 2016)
Read-outs that look alike come from different tables or passages of the source.

What was measured:
[1] = system: Plasmodium falciparum strain 3D7; experiment: Plasmodium falciparum screening, SYBR green growth inhibition; format: cell-based
Procedure: (§1) Plasmodium falciparum screening
(§2) Assays against P. falciparum were conducted as previously described.1 Cultures of the widely-used malaria reference strain of chloroquine-sensitive Plasmodium falciparum strain 3D7 were maintained in a 5% suspension of human red blood cells (obtained from East of Scotland Blood Transfusion Service, Ninewells Hospital, Dundee) cultured in RPMI 1640 medium (pH 7.3) supplemented with 0.5% Albumax II (Gibco Life Technologies, San Diego, CA), 12 mM sodium bicarbonate, 0.2 mM hypoxanthine and 20 mg/L gentamicin at 37°C, in a humidified atmosphere of 1% O 2, 3% CO2 with a balance of nitrogen. Growth inhibition was quantified using a fluorescence assay utilising the binding of SYBR green to double stranded DNA, which emits a fluorescent signal at 528 nm after excitation at 485nm.2 Mefloquine (potency range 30-60 nM) was used as a drug control to monitor the quality of the assay (Z’ = 0.6 to 0.8, Signal to background >3, where Z’ is a measure of the discrimination between the positive and negative controls on a screen plate). A 96-well [3H]-Hypoxanthine incorporation assay was also developed as a secondary assay in order to validate compounds from the initial screen in an orthogonal platform.3 Compound bioactivity from both assays was expressed as […]
(§3) P. falciparum (panel of resistant strains) in vitro assay. (Swiss TPH)
(§4) All Plasmodium strains were cultured according to Trager and Jensen and are described at www.beiresources.org (resistant strains: K1, W2, 7G8, TM90C2A, D6 and V1/S, sensitive strain:
(§5) NF54). EC50 values were determined in vitro by measuring incorporation of the nucleic acid precursor […]
(§6) Mammalian Cell Growth Inhibition assay
(§7) A counter-screen against normal diploid human fibroblasts (MRC-5 cell line) was carried out to exclude non-selective, and toxic compounds. The assay was essentially carried out as described previously.4 Cells were plated and incubated overnight to allow them to adhere as monolayers. A working stock of each test compound was transferred to an intermediate 384-well plate and pre-diluted with minimum essential media (MEM). The pre-diluted stocks were then transferred onto the cell monolayers, and the plates were incubated for 68 h. Resazurin, to a final concentration of 50 μM, was added to each well, after which plates were incubated for a further 3 h and measured for fluorescence (λex=528 nm, λem=590 nm)
(§8) In vitro Cell Assay Data Analysis.
(§9) All data was processed using IDBS ActivityBase® raw data was converted into per cent inhibition through linear regression by setting the high inhibition control as 100% and the no inhibition control as 0%. Quality control criteria for passing plates were as follows: Z’> 0.5, S:B> 3, %CV(no inhibition < 15 . The formula used to calculate Z’ is 1 3× (St D e v _ hi gh + St D e v _ low) . […]
(§10) All EC50 Curve fitting was undertaken using XLFit version 4.2 using Model 205 with the following 4 parametric equation: y = A + B A A + ($-&) ,where A=% inhibition at bottom, B=% […]
(§11) inhibition at top, C= EC50, D= slope, x= inhibitor concentration and y= % inhibition. […]
(§12) reach 100% of inhibition, B was fixed to 100 only when at least 50% of inhibition was reached.
(§13) Plasmodium falciparum late stage (IV-V) gametocyte high content imaging assay Plasmodium falciparum NF54-pfs16-LUC-GFP stage IV-V Gametocytes were produced as described previously.5 Compounds were solubilized in DMSO and serially diluted in three concentrations per log standard curves in DM SO. One µl of compound was subsequently diluted in 25µl of water (4% DMSO) and 5µl transferred into the base of 384 well PerkinElmer CellCarrier plates. Forty-five µl of stage IV-V gametocytes (10%P in 0.1%H) were added to the imaging plates which were in turn sealed with a gas permeable membrane and incubated at 37°C, 5% CO 2, 5% O2, 90% N2 and 60% humidity […]
(§14) Post incubation, 5µl of MitoTracker® Red CM -H2Xros (MTR) solution (0.66ug/ml) was added to all wells and the plates incubated for a further 16hours. […]

[2] = system: MRC-5 cell line; experiment: Mammalian cell growth inhibition counter-screen (resazurin); format: cell-based, human; conditions: Homo sapiens, MRC5; supplementary csv; read-out: Hs MRC-5 EC50
Procedure: as §1, §2, §3, §4, §5, §6, §7, §8, §9, §10, §11, §12, §13, §14

[3] = Intrinsic clearance (Cli) in mouse liver microsomes; format: in vitro ADME
Excerpt: as §11, §12, §13
Post incubation, 5µl of MitoTracker® Red CM -H2Xros (MTR) solution (0.66ug/ml) was added to all wells and the plates incubated for a further 16hours. The assay plates were then imaged and the number of viable gametocytes determined for test compounds plus 0.4%DMSO and 5µM Puromycin.
(0.4%DMSO) control values. Percent inhibition was plotted against log compound concentration using a 4 parameter log dose, non-linear regression analysis, with sigmoidal dose response (variable slope) curve fit using Prizm 4.0. IC50 values were obtained from this curve fit. The compound testing was performed in duplicate point within two separate experiments.
Plasmodium berghei ookinete development assay
Assay was performed as previously reported.6 Briefly blood containing P. berghei CTRPp-GFP gametocytes was rapidly harvested from infected mice and introduced to test compounds pre-diluted in ookinete medium (to induce gamete formation and support ookinete development) in 96-well plates. Plates were incubated in the dark at 21°C for 22 hr before GFP fluorescence intensity measured in a plate reader. % inhibition of ookinete formation was calculated with reference to the fluorescence intensity values of a positive control (20 µM cycloheximide) and a solvent-only negative control (DMSO). All assays were performed in triplicate independent experiments and EC50 values calculated in Graphpad Prism.
The aqueous solubility of the test compounds was measured using laser nephelometry, as described previously.7 Compounds were subject to serial dilution from 10 mg/mL to 0.5 mg/mL in DMSO. An aliquot was then mixed with MilliQ water to obtain an aqueous dilution plate with a final concentration range of 100 – 5 μg/mL, with a final DMSO concentration of 1.0%. Triplicate aliquots were transferred to a flat bottomed polystyrene plate which was immediately read on the NEPHELOstar (BMG Lab Technologies). The amount of laser scatter caused by insoluble particulates (relative nephelometry units, RNU) was plotted against compound concentration using a segmental regression fit, with the point of inflection being quoted as the compounds aqueous solubility (μg/mL; […]
Intrinsic Clearance (Cli) experiments
The procedure was carried out as reported previously.7 Test compound (0.5 µM) was incubated with female CD1 mouse, male sprague-dawley rat or pooled human mixed gender liver microsomes (Xenotech LLC TM; 0.5 mg/mL 50 mM potassium phosphate buffer, pH 7.4) and the reaction initiated […]
by the addition of excess NADPH (8 mg/mL 50 mM potassium phosphate buffer, pH 7.4).
Immediately, at time zero, then at 3, 6, 9, 15 and 30 min an aliquot (50 μL) of the incubation mixture was removed and mixed with acetonitrile (100 μL) to stop the reaction. Internal standard was added to all samples, the samples centrifuged to sediment precipitated protein and the plates then sealed prior to UPLC-MS/MS analysis using a Quattro Premier XE (Waters Corporation, USA).
XLfit (IDBS, UK) was used to calculate the exponential decay and consequently the rate constant (k) from the ratio of peak area of test compound to internal standard at each timepoint. The rate of […]

[4] = system: Pf (3D7); experiment: Ligand efficiency metrics (LE, LLE, LELP), selectivity and fold changes; parameters: species or system Plasmodium falciparum; conditions: for drop in potency: Pf (3D7), relative to the comparator compound of the sentence
[5] = Mammalian cell growth inhibition counter-screen (resazurin); format: cell-based, human; conditions: human, MRC-5 cells (normal diploid human fibroblasts)
Procedure: as §1, §2, §3, §4, §5, §6, §7, §8, §9, §10, §11, §12, §13, §14

[6] = system: P. berghei ANKA strain; experiment: In vivo antimalarial efficacy in the P. berghei mouse model (Peter's test); parameters: species or system Plasmodium berghei in female NMRI mice; conditions: 4 × 10 mg/kg oral, once daily; mice cured / mice in group
Procedure: Compound 41 was dosed as a bolus solution intravenously at 1 mg free base/kg (dose volume: 5 mL/kg; dose vehicle: 5% DMSO;saline) or by gavage orally as solution at 3 mg free base/kg (dose volume: 10 mL/kg; Dose vehicle: 0.5% w/v hydroxypropylmethylcellulose with 0.4% v/v Tween 80 and 0.5% v/v benzyl alcohol) to male Sprague Dawley rats (n=3/dose route). Blood samples were taken from each rat at 5, 15, 30 min, 1, 2, 4, 6, 8, 24 and 30 h post-dose, mixed with two volumes of distilled water and stored frozen until UPLC/MS/MS analysis.
Pharmacokinetic parameters were derived from the blood concentration time curve for each compound using PKsolutions software v 2.0 (Summit Research Services, USA).
In vivo antimalarial efficacy studies in P. berghei. (Swiss TPH)
In vivo efficacy was conducted as previously described10 with the modification that female NMRI mice (n = 3) were infected with a GFP-transfected P. berghei ANKA strain (donated by A. P. Waters and C. J. Janse, Leiden University, The Netherlands), and parasitaemia determined (96 h after infection) using standard flow cytometry techniques. Compounds 1, 25, 27, 30 and 49 were prepared in 10% DM SO, 40% PEG 400 and 50% water prior to administration orally, once daily for 4 days.
Compounds 40, 41, 43 and 44 were prepared in a non-solubilizing, standard suspension vehicle called HPMC (0.5% [wt/vol] hydroxypropylmethylcellulose, 0.5% [vol/vol] benzyl alcohol, 0.4% [vol/vol] Tween 80, and 0.9% [wt/vol] sodium chloride in water) prior to administration orally, once daily for 4 days. Blood samples were collected on day 4 (96 h after infection) in two volumes water. Animals […]
and then hourly up to 4 h after dosing each day. The animals were selected randomly for each group

[7] = 3D7, supplementary csv, read-out: Pf (3D7) EC50

In the case of `O=C(NCCN1CCCC1)c1cc(-c2cccc(CN3CCOCC3)c2)nc2ccc(F)cc12` [Compound 45], the EC50 [1, 7] is reported as 10.4 µM.
With `Cc1ccc(-c2cc(C(=O)NCCN3CCCCC3)c3cc(Cl)ccc3n2)cc1` [Compound 17] the EC50 [2] was 7.4 µM.
With `CN(CCN1CCCC1)C(=O)c1cc(-c2ccc(CN3CCOCC3)cc2)nc2ccc(F)cc12` [Compound 47, 6-Fluoro-N-methyl-2-(4-(morpholinomethyl)phenyl)-N-(2-(pyrrolidin-1-yl)ethyl)quinoline-4-carboxamide] the “MLM Cli” value ([3]; mouse liver microsome) was less than 0.5 mL min^–1 g^–1 and the drop in potency [4] was 87 fold.
Work on `O=C(NCCN1CCCC1)c1cc(-c2ccc(C(=O)N3CCOCC3)cc2)nc2ccc(F)cc12` [Compound 39, 6-Fluoro-2-(4-(morpholine-4-carbonyl)phenyl)-N-(2-(pyrrolidin-1-yl)ethyl)quinoline-4-carboxamide] yielded an EC50 at 68 h [5] greater than 50 µM.
`O=C(NCCN1CCC(F)CC1)c1cc(NCCCN2CCOCC2)nc2ccc(F)cc12` [Compound 31] showed an EC50 [2] of 40.9 µM.
With `O=C(NCCN1CCCC1)c1cc(N2CCn3ccnc3C2)nc2ccc(F)cc12` [Compound 22, 2-(5,6-Dihydroimidazo[1,2-a]pyrazine-7(8H)-yl)-6-fluoro-N-(2-(pyrrolidin-1-yl)ethyl)quinoline-4-carboxamide] the EC50 at 68 h [5] was greater than 50 µM.
`O=C(NCCN1CCOCC1)c1cc(NCCCN2CCOCC2)nc2ccc(F)cc12` [Compound 32] gave an EC50 [2] greater than 50 µM.
`OC(c1cc(C(F)(F)F)nc2c(C(F)(F)F)cccc12)C1CCCCN1` (stereo not drawn) [Mefloquine, reference compound] gave an EC50 ([1]; 3D7, quality control of the assay, read-out: potency range (drug control)) of 0.03 to 0.06 µM.
With `O=C(NCCN1CCCC1)c1cc(N2CCC(N3CCOCC3)CC2)nc2ccc(Cl)cc12` [Compound 24, 6-Chloro-2-(4-morpholinopiperidin-1-yl)-N-(2-(pyrrolidin-1-yl)ethyl)quinoline-4-carboxamide] the “LLE (ligand-lipophilicity efficiency)” value [4] was 4.2.
With `O=C(NCCNC1CC1)c1cc(-c2ccc(CN3CCOCC3)cc2)nc2ccc(F)cc12` [Compound 48, N-(2-(Cyclopropylamino)ethyl)-6-fluoro-2-(4-(morpholinomethyl)phenyl)quinoline-4-carboxamide] the “MLM Cli” value ([3]; mouse liver microsome) was 2 mL min^–1 g^–1 and the EC50 [1, 7] was 0.0024 µM.
In the case of `O=C(NCCN1CCC(F)(F)CC1)c1cc(NCCCN2CCOCC2)nc2ccc(F)cc12` [Compound 33], the EC50 [2] is reported as greater than 50 µM.
For `O=C(NCCN1CCC(F)(F)C1)c1cc(NCCCN2CCOCC2)nc2ccc(F)cc12` [Compound 35], the EC50 [2] was greater than 50 µM.
For `Cc1cc(Nc2cc(C(=O)NCCN3CCCC3)c3cc(F)ccc3n2)on1` [Compound 20], the EC50 at 68 h [5] was greater than 50 µM.
In the case of `O=C(NCCN1CCCC1)c1cc(NCCN2CCOCC2)nc2ccc(F)cc12` [Compound 26, 6-Fluoro-2-((3-morpholinoethyl)amino)-N-(2-(pyrrolidin-1-yl)ethyl)quinoline-4-carboxamide], the “MLM Cli” value ([3]; mouse liver microsomes) is reported as less than 0.5 mL/min/g.
`Cc1ccc(-c2cc(C(=O)NCCCN(C)C)c3cc(Cl)ccc3n2)cc1` [Compound 14, 6-Chloro-N-(3-(dimethylamino)propyl)-2-(p-tolyl)quinoline-4-carboxamide] showed an EC50 [2] of 5.55 µM.
In the case of `O=C(NCCN1CCCC(F)(F)C1)c1cc(NCCCN2CCOCC2)nc2ccc(F)cc12` [Compound 34], the EC50 [2] is reported as greater than 50 µM.
In the case of `O=C(NCCN1CCC1)c1cc(-c2ccc(CN3CCOCC3)cc2)nc2ccc(F)cc12` [Compound 49, N-(2-(Azetidin-1-yl)ethyl)-6-fluoro-2-(4-(morpholinomethyl)phenyl)quinoline-4-carboxamide], the “MLM Cli” value ([3]; mouse liver microsome) is reported as 0.5 mL min^–1 g^–1 and the cure [6] is reported as 1/3.
With `Cc1ccc(-c2cc(C(=O)Nc3cccnc3)c3cc(Br)ccc3n2)cc1` [Compound 1] the “LLE (ligand-lipophilicity efficiency)” value [4] was 2.6.
With `O=C(NCCN1CCOCC1)c1cc(-c2ccc(CN3CCOCC3)cc2)nc2ccc(F)cc12` [Compound 46] the “MLM Cli” value ([3]; mouse liver microsome) was less than 0.5 mL min^–1 g^–1 and the drop in potency [4] was 12 fold.
In the case of `Cc1ccc(-c2cc(C(=O)NCCN3CCCC3)c3cc(F)ccc3n2)cc1` [Compound 19], the “LLE (ligand-lipophilicity efficiency)” value [4] is reported as 3.2.
